Consider 1 compound from patent publication US8779006B2, “Compositions and methods for treatment and prevention of osteoarthritis” (Nucitec S.A. de C.V., priority 2007, dated 2014).

Test [1] relates to patients with OA of the knee. Description: Example 2 randomized double-blind active-controlled study: WOMAC index. Type of test: in vivo, human. As for the experimental part: (§1) This was a 16-week, randomized, double-blind, active-controlled, parallel-group study. The study received Ethics Committee approval, was performed in accordance with the ICH Harmonized Guidelines for Good clinical Practice (GPC) and the Declaration of Helsinki. All patients provided written, informed consent before the start of the study.
(§2) 117 patients with OA of the knee (according to the American College of Rheumatology criteria) were included in the study. Patients were enrolled by public advertising and were studied at the San Jose Hospital in Queretaro, México. Entry criteria included: willingness to participate in the study, male and female patients aged at least 40 years of age with symptomatic evidence of OA in the knee for at least 1 year, radiographic evidence of Kellgren and Lawrence grade II to IV OA of the knee, and no intra-articular injection of corticosteroids within the last 3 months. Patients were excluded if they had: any history of adverse reaction to the study drugs, current pregnancy status, uncontrolled hypertension, active infection, undergone surgery/arthroscopy within three months, diagnosis of radiographic OA of Kellgren and Lawrence grade I.
(§3) Participants were assessed in-person during 6 visits conducted at monthly intervals. After giving written informed consent (visit #1), patients were screened and selected according to the predetermined criteria. Visit #2 was the baseline assessment. During this visit selected patients were assigned a unique patient identification number and randomized to receive 1 intra-articular monthly injection (10 mL) of Kondrium™, Kondrium™-F or methylprednisolone (80 mg) 1 month apart during the next 3 months (visits 3, 4 and 5). Visit #3, #4 and #5 served as a midpoint assessment and visit #6 was the final assessment corresponding to the end of the intervention period of the study. Kondrium™ is an aqueous formulation that contains 6.75% (w/v) sodium bicarbonate and 0.75% (w/v) calcium gluconate. Kondrium™-F is an aqueous formulation that contains 6.75% (w/v) sodium bicarbonate and 1.5% (w/v) calcium gluconate.
(§4) The primary efficacy variable was the change from the baseline to final assessment in the Western Ontario and McMastern University OA index (WOMAC subscale score for pain), and Lequesne's functional index.
(§5) Data analysis was performed using SPSS for Windows version 10.0. Baseline demographic variables and compliance were analyzed by means of the χ^2 test. A univariate analysis of variance (ANOVA) was used to determine whether the three treatment groups differed in mean values of change from a baseline in WOMAC and Lequesne's functional index. Treatment effect is shown as the main effect controlled by the baseline values. Pairwise comparisons between treatments were done with the LSD test. All statistical tests were performed at the 0.05 level of significance.

For test [2], the system named is patients with OA of the knee. Description: Example 2 randomized double-blind active-controlled study: Lequesne's functional index. Type of test: in vivo, human. As for the experimental part: as §1, §2, §3, §4, §5
[3] abbreviates: after 4 months of treatment, monthly intra-articular injection.

Structures are written as SMILES.

`C[C@H]1C[C@@H]2[C@H]([C@@H](O)C[C@@]3(C)[C@H]2CC[C@]3(O)C(=O)CO)[C@@]2(C)C=CC(=O)C=C12` [Methylprednisolone, methylprednisolone]: in test [1] (setting [3]), the “WOMAC Pain, change, mean” value was −2.76; the “WOMAC Pain, final, mean” value was 2.57; the “WOMAC Physical functioning, change, mean” value was −7.34; the “WOMAC Physical functioning, final, mean” value was found to be 8.19. In test [1] (setting [3]), the “WOMAC Stiffness, change, mean” value is reported as −2.42 and the “WOMAC Stiffness, final, mean” value was 2.77. In test [1] (before treatment), the “WOMAC Pain, baseline, mean” value worked out at 4.72; the “WOMAC Physical functioning, baseline, mean” value amounted to 14.47; the “WOMAC Stiffness, baseline, mean” value is 4.79. In test [2] (setting [3]), the “Lequesne functional index Maximum Walking Distance, change, mean” value is reported as −0.75; the “Lequesne functional index Maximum Walking Distance, final, mean” value is reported as 2.90; the “Lequesne functional index Normal activities, change, mean” value is −2.80; the “Lequesne functional index Normal activities, final, mean” value is 4.62. In test [2] (setting [3]), the “Lequesne functional index Pain, change, mean” value was −1.96 and the “Lequesne functional index Pain, final, mean” value is reported as 2.86. For the same compound, in test [2] (before treatment), the “Lequesne functional index Maximum Walking Distance, baseline, mean” value worked out at 3.24; the “Lequesne functional index Normal activities, baseline, mean” value is listed as 6.93; the “Lequesne functional index Pain, baseline, mean” value came to 4.34. In addition, in test [2] (end of study vs baseline), the “mean change in the Lequesne's functional index” value is on record as −5.2.
